Data: ChEMBL document CHEMBL3400015, “Tertiary amides of Salinomycin: A new group of antibacterial agents against Bacillus anthracis and methicillin-resistant Staphylococcus epidermidis” (Bioorg Med Chem Lett, 2015)
≈ marks a conversion by molar mass, not a printed value.

How the values were obtained:
Staphylococcus aureus [1] = assay: Antimicrobial activity against Staphylococcus aureus ATCC 6538 after 18 hrs by twofold serial broth dilution method; format: functional; settings: ATCC 6538, 18 h
Staphylococcus aureus [2] = assay: Antimicrobial activity against Staphylococcus aureus […] after 18 hrs by twofold serial broth dilution method; format: functional
[3] = system: Staphylococcus epidermidis; assay: Antimicrobial activity against Staphylococcus epidermidis ATCC 12228 after 18 hrs by twofold serial broth dilution method; format: functional; settings: ATCC 12228, 18 h
[4] = system: Staphylococcus epidermidis; assay: Antimicrobial activity against Staphylococcus epidermidis ATCC 35984 after 18 hrs by twofold serial broth dilution method; format: functional; settings: ATCC 35984, 18 h
Escherichia coli [5] = assay: Antimicrobial activity against Escherichia coli ATCC 25922 after 18 hrs by twofold serial broth dilution method; format: functional; settings: ATCC 25922, 18 h
Escherichia coli [6] = assay: Antimicrobial activity against Escherichia coli NCTC 8196 after 18 hrs by twofold serial broth dilution method; format: functional; settings: NCTC 8196, 18 h
Pseudomonas aeruginosa [7] = assay: Antimicrobial activity against Pseudomonas aeruginosa ATCC 15442 after 18 hrs by twofold serial broth dilution method; format: functional; settings: ATCC 15442, 18 h
Pseudomonas aeruginosa [8] = assay: Antimicrobial activity against Pseudomonas aeruginosa NCTC 6749 after 18 hrs by twofold serial broth dilution method; format: functional; settings: NCTC 6749, 18 h
Pseudomonas aeruginosa [9] = assay: Antimicrobial activity against Pseudomonas aeruginosa ATCC 27853 after 18 hrs by twofold serial broth dilution method; format: functional; settings: ATCC 27853, 18 h
Bacillus anthracis = assay: Antimicrobial activity against Bacillus anthracis 34F2 after 18 hrs by twofold serial broth dilution method; format: functional; settings: 34F2, 18 h
Staphylococcus aureus [10] = assay: Bactericidal activity against Staphylococcus aureus ATCC 25923 after 24 hrs; format: functional; settings: ATCC 25923, 24 h, read-out: MBC99.9
Staphylococcus aureus [11] = assay: Bactericidal activity against Staphylococcus aureus […] after 24 hrs; format: functional; settings: read-out: MBC99.9
[12] = system: Staphylococcus epidermidis; assay: Bactericidal activity against Staphylococcus epidermidis ATCC 12228 after 24 hrs; format: functional; settings: ATCC 12228, 24 h, read-out: MBC99.9
[13] = system: Staphylococcus epidermidis; assay: Bactericidal activity against Staphylococcus epidermidis ATCC 35984 after 24 hrs; format: functional; settings: ATCC 35984, 24 h, read-out: MBC99.9
Escherichia coli [14] = assay: Bactericidal activity against Escherichia coli NCTC 8196 after 24 hrs; format: functional; settings: NCTC 8196, 24 h, read-out: MBC99.9
Pseudomonas aeruginosa [15] = assay: Bactericidal activity against Pseudomonas aeruginosa NCTC 6749 after 24 hrs; format: functional; settings: NCTC 6749, 24 h, read-out: MBC99.9
Pseudomonas aeruginosa [16] = assay: Bactericidal activity against Pseudomonas aeruginosa ATCC 27853 after 24 hrs; format: functional; settings: ATCC 27853, 24 h, read-out: MBC99.9
[17] = system: Staphylococcus epidermidis; assay: Antimicrobial activity against methicillin-resistant Staphylococcus epidermidis isolate 403/10 after 18 hrs by twofold serial broth dilution method; format: functional; settings: isolate 403/10, 18 h
[18] = system: Staphylococcus epidermidis; assay: Antimicrobial activity against methicillin-resistant Staphylococcus epidermidis isolate 404/10 after 18 hrs by twofold serial broth dilution method; format: functional; settings: isolate 404/10, 18 h
[19] = system: Staphylococcus epidermidis; assay: Antimicrobial activity against methicillin-resistant Staphylococcus epidermidis isolate 405/10 after 18 hrs by twofold serial broth dilution method; format: functional; settings: isolate 405/10, 18 h
[20] = system: Staphylococcus epidermidis; assay: Antimicrobial activity against methicillin-resistant Staphylococcus epidermidis isolate 407/10 after 18 hrs by twofold serial broth dilution method; format: functional; settings: isolate 407/10, 18 h
[21] = system: Staphylococcus epidermidis; assay: Antimicrobial activity against methicillin-resistant Staphylococcus epidermidis isolate 409/10 after 18 hrs by twofold serial broth dilution method; format: functional; settings: isolate 409/10, 18 h
[22] = system: Staphylococcus epidermidis; assay: Antimicrobial activity against methicillin-resistant Staphylococcus epidermidis isolate 422/10 after 18 hrs by twofold serial broth dilution method; format: functional; settings: isolate 422/10, 18 h
[23] = system: Staphylococcus epidermidis; assay: Antimicrobial activity against methicillin-resistant Staphylococcus epidermidis isolate 424/10 after 18 hrs by twofold serial broth dilution method; format: functional; settings: isolate 424/10, 18 h
[24] = system: Staphylococcus epidermidis; assay: Antimicrobial activity against methicillin-resistant Staphylococcus epidermidis isolate 454/11 after 18 hrs by twofold serial broth dilution method; format: functional; settings: isolate 454/11, 18 h
[25] = system: Staphylococcus epidermidis; assay: Antimicrobial activity against methicillin-resistant Staphylococcus epidermidis isolate 455/11 after 18 hrs by twofold serial broth dilution method; format: functional; settings: isolate 455/11, 18 h
[26] = system: Staphylococcus epidermidis; assay: Antimicrobial activity against methicillin-resistant Staphylococcus epidermidis isolate 457/11 after 18 hrs by twofold serial broth dilution method; format: functional; settings: isolate 457/11, 18 h
[27] = system: Staphylococcus epidermidis; assay: Antimicrobial activity against methicillin-resistant Staphylococcus epidermidis isolate 458/11 after 18 hrs by twofold serial broth dilution method; format: functional; settings: isolate 458/11, 18 h
[28] = system: Staphylococcus epidermidis; assay: Antimicrobial activity against methicillin-resistant Staphylococcus epidermidis isolate 459/11 after 18 hrs by twofold serial broth dilution method; format: functional; settings: isolate 459/11, 18 h
[29] = system: Staphylococcus epidermidis; assay: Antimicrobial activity against methicillin-resistant Staphylococcus epidermidis isolate 460/11 after 18 hrs by twofold serial broth dilution method; format: functional; settings: isolate 460/11, 18 h
[30] = system: Staphylococcus epidermidis; assay: Antimicrobial activity against methicillin-resistant Staphylococcus epidermidis isolate 461/11 after 18 hrs by twofold serial broth dilution method; format: functional; settings: isolate 461/11, 18 h
[31] = system: Staphylococcus epidermidis; assay: Antimicrobial activity against methicillin-resistant Staphylococcus epidermidis isolate 470/11 after 18 hrs by twofold serial broth dilution method; format: functional; settings: isolate 470/11, 18 h
[32] = system: Staphylococcus epidermidis; assay: Bactericidal activity against methicillin-resistant Staphylococcus epidermidis isolate 403/10 after 24 hrs; format: functional; settings: isolate 403/10, 24 h, read-out: MBC99.9
[33] = system: Staphylococcus epidermidis; assay: Bactericidal activity against methicillin-resistant Staphylococcus epidermidis isolate 404/10 after 24 hrs; format: functional; settings: isolate 404/10, 24 h, read-out: MBC99.9
[34] = system: Staphylococcus epidermidis; assay: Bactericidal activity against methicillin-resistant Staphylococcus epidermidis isolate 407/10 after 24 hrs; format: functional; settings: isolate 407/10, 24 h, read-out: MBC99.9
[35] = system: Staphylococcus epidermidis; assay: Bactericidal activity against methicillin-resistant Staphylococcus epidermidis isolate 424/10 after 24 hrs; format: functional; settings: isolate 424/10, 24 h, read-out: MBC99.9
[36] = system: Staphylococcus epidermidis; assay: Bactericidal activity against methicillin-resistant Staphylococcus epidermidis isolate 454/11 after 24 hrs; format: functional; settings: isolate 454/11, 24 h, read-out: MBC99.9
[37] = system: Staphylococcus epidermidis; assay: Bactericidal activity against methicillin-resistant Staphylococcus epidermidis isolate 455/11 after 24 hrs; format: functional; settings: isolate 455/11, 24 h, read-out: MBC99.9
[38] = system: Staphylococcus epidermidis; assay: Bactericidal activity against methicillin-resistant Staphylococcus epidermidis isolate 458/11 after 24 hrs; format: functional; settings: isolate 458/11, 24 h, read-out: MBC99.9
[39] = system: Staphylococcus epidermidis; assay: Bactericidal activity against methicillin-resistant Staphylococcus epidermidis isolate 459/11 after 24 hrs; format: functional; settings: isolate 459/11, 24 h, read-out: MBC99.9
[40] = system: Staphylococcus epidermidis; assay: Bactericidal activity against methicillin-resistant Staphylococcus epidermidis isolate 460/11 after 24 hrs; format: functional; settings: isolate 460/11, 24 h, read-out: MBC99.9
[41] = system: Staphylococcus epidermidis; assay: Bactericidal activity against methicillin-resistant Staphylococcus epidermidis isolate 470/11 after 24 hrs; format: functional; settings: isolate 470/11, 24 h, read-out: MBC99.9
Bacillus subtilis = assay: Genotoxicity in rec-negative Bacillus subtilis M45 at 2 ug/9 mm disc after 24 hrs by disc diffusion method; format: toxicity, organism-based

What does the source list for CC[C@@H](C(=O)[C@@H](C)[C@@H](O)[C@H](C)[C@@H]1O[C@@H]([C@@H](CC)C(=O)N(CCOC)CCOC)CC[C@@H]1C)[C@H]1O[C@]2(C=C[C@@H](O)[C@]3(CC[C@@](C)([C@H]4CC[C@](O)(CC)[C@H](C)O4)O3)O2)[C@H](C)C[C@@H]1C?
MIC (Staphylococcus aureus [1]): 64 µg/mL (≈ 73.9 µM); MIC (Staphylococcus aureus [2]): 128 µg/mL (≈ 148 µM); MIC [3]: 128 µg/mL (≈ 148 µM); MIC [4]: 128 µg/mL (≈ 148 µM); MIC (Escherichia coli [5]): > 256 µg/mL; MIC (Escherichia coli [6]): > 256 µg/mL; MIC (Pseudomonas aeruginosa [7]): > 256 µg/mL; MIC (Pseudomonas aeruginosa [8]): > 256 µg/mL; MIC (Pseudomonas aeruginosa [9]): > 256 µg/mL; MIC (Bacillus anthracis): 512 µg/mL (≈ 591 µM); MBC (Staphylococcus aureus [10]): > 256 µg/mL; MBC (Staphylococcus aureus [11]): > 256 µg/mL; MBC [12]: > 256 µg/mL; MBC [13]: > 256 µg/mL; MBC (Escherichia coli [14]): > 256 µg/mL; MBC (Pseudomonas aeruginosa [15]): > 256 µg/mL; MBC (Pseudomonas aeruginosa [16]): > 256 µg/mL; MIC [17]: 64 µg/mL (≈ 73.9 µM); MIC [18]: 128 µg/mL (≈ 148 µM); MIC [19]: 256 µg/mL (≈ 296 µM); MIC [20]: 128 µg/mL (≈ 148 µM); MIC [21]: 128 µg/mL (≈ 148 µM); MIC [22]: 128 µg/mL (≈ 148 µM); MIC [23]: 256 µg/mL (≈ 296 µM); MIC [24]: 64 µg/mL (≈ 73.9 µM); MIC [25]: 128 µg/mL (≈ 148 µM); MIC [26]: 128 µg/mL (≈ 148 µM); MIC [27]: 64 µg/mL (≈ 73.9 µM); MIC [28]: 128 µg/mL (≈ 148 µM); MIC [29]: 128 µg/mL (≈ 148 µM); MIC [30]: 256 µg/mL (≈ 296 µM); MIC [31]: 256 µg/mL (≈ 296 µM); MBC [32]: > 256 µg/mL; MBC [33]: > 256 µg/mL; MBC [34]: > 256 µg/mL; MBC [35]: > 256 µg/mL; MBC [36]: > 256 µg/mL; MBC [37]: > 256 µg/mL; MBC [38]: > 256 µg/mL; MBC [39]: > 256 µg/mL; MBC [40]: > 256 µg/mL; MBC [41]: > 256 µg/mL; diameter of the inhibition zone (DIZ) (Bacillus subtilis): 14 mm
